We go through one compound from patent publication US9283212B2, “Pharmaceutical preparation and delivery system” (PALMAYA PTY LTD, priority 2009, dated 2016).

Entries after “also recorded” stand apart in the source; their conditions may differ.

The subject of data set [1] is patients with addiction, chronic anxiety or sleep disorders. Description: continuous subcutaneous infusion of flumazenil in patients (case study and observations). Type of data set: in vivo, human. The protocol:
A solution of flumazenil in saline solution was prepared by dissolving 16 mg of flumazenil in 30 mL of saline and adjusting the pH to between 6.5 to 7.0 with a phosphate buffer, solution (pH 5.0). The final concentration of flumazenil in saline is 0.53 mg/mL.
A solution of flumazenil in saline was prepared as set out above. That is, a portion of 12 to 16 mg flumazenil in 30 mL of saline was prepared for the subcutaneous administration via a spring driven 30 mL pump. The pump used was a portable infusion Springfusor pump (O'Neil Balloon Infuser, ID: SBI-100; Go Medical Industries). The delivery rate of the flumazenil was in the order of 40 to 1000 μg/h.
A Springfusor pump connected to tubing and a butterfly cannula was set up, wherein the pump was loaded with 30 mL of flumazenil solution (0.53 mg/mL). The butterfly cannula was inserted into the patient's abdomen using standard techniques and the pump set to delivery flumazenil at a rate of 166 μg/h. After the initial four day (96 hour) administration, the pump was reloaded with a further 30 mL of flumazenil solution (0.53 mgmL) and delivery continued for a further four days (96 hours). The subcutaneous infusion continued for a total of three weeks.

The subject of data set [2] is patient suffering from chronic anxiety. Description: patient controlled subcutaneous pump, single dose, heart rate and anxiety. Type of data set: in vivo, human. How it is done: The heart rate and the body movement of the patient were recorded using standard equipment.
Data set [3] deals with patients with cravings for smoking. The conditions noted are these: patient controlled delivery, agent alone.
Source text: In one experiment, flumazenil and naltrexone were mixed to capture the benefits of mixing a benzodiazepine antagonist and an opiate antagonist to be given in a pulsative manner when cravings were observed.
For data set [4] the following is noted: cited from earlier work.
The conditions of data set [5]: cited from earlier work. The source holds these as a separate data set.
For data set [6], the system named is subjects with panic disorder, social anxiety or alcohol dependence. The settings on record: cited from earlier work.
Data set [7] relates to patients with addiction, chronic anxiety or sleep disorders. Description: continuous subcutaneous infusion of flumazenil in patients (case study and observations). The settings on record: intravenous infusions below 80 μg/h. Type of data set: in vivo, human.
[8] abbreviates: continuous subcutaneous infusion.

Take `CCOC(=O)c1ncn2c1CN(C)C(=O)c1cc(F)ccc1-2` [flumazenil]: in data set [1] (after full treatment with subcutaneous infusion, one patient), the panic attacks result is reported as “gone”. The anticonvulsant effect entry in data set [1] (constant subcutaneous delivery of 166 μg/h) is reported as “appears to be effective as an anticonvulsant”. Besides, the sleeping pulse rates entry in data set [1] (continuous infusion with or without opiate and cannabanoid antagonists, chronic anxiety disorders) is “reductions in sleeping pulse rates”. Further, in data set [1] (setting [8]), the “anxiety levels / anxiety disorders” value is listed as “reduced; also recorded: marked improvements” and the cognitive function result is given as “improved cognitive functions; also recorded: appeared to improve daily”. Also, the “dependency on anti-psychotic drugs” value in data set [1] (continuous subcutaneous infusion 166 μg/h, one patient) is recorded as “decreased”. Also, the “sleep patterns / chronic sleep disorders” value in data set [1] (continuous subcutaneous infusion, 166 μg/h, greater than four days) is recorded as “better sleep patterns; also recorded: gradually improved; also recorded: good response rates”. Besides, the “cravings for addictive substances (alcohol, smoking, amphetamines, opiates, benzodiazepines)” value in data set [1] (continuous subcutaneous infusion, during and after infusion) was “decreased and eventually were considered negligible; also recorded: reduced; also recorded: reduction in craving for alcohol”. The compound also yielded a pulse rate in data set [2] (60 minutes after single 1 mg subcutaneous dose, from close to 120 bpm before) of 80 bpm. In addition, the anxiety entry in data set [2] (single 1 mg dose via patient controlled subcutaneous pump) is reported as “reduction in anxiety”. The “symptoms of craving and anxiety” value in data set [3] was “decrease symptoms of craving and anxiety”. The “solubility in acidic aqueous solutions” value in data set [4] (acidic aqueous solutions) is recorded as “slightly soluble”. Besides, the solubility in water result in data set [4] (water) was “insoluble in water”. In data set [5] (in vivo), the half life entry is “very short half life”. The oral bioavailability result in data set [5] (oral) was “low oral bioavailability”. Also, the panic induction result in data set [6] (bolus infusion of 2 mg in 10 minutes, subjects with panic disorder) is recorded as “can act as a specific panicogen”. For the same compound, the “effect on social anxiety or alcohol-dependent subjects” value in data set [6] (intravenous infusion) is on record as “no effect”. In data set [7], the anticonvulsant effect entry was “failed to stop epileptic convulsions”.
